This experiment relates to GDF8 signaling (p-SMAD-3 (Ser423/425)). Kind of experiment: AlphaScreen SureFire SMAD3 (p-Ser423/425) assay, GDF8-stimulated cells (GDF pSMAD). It counts as cell-based. As to conditions: Mus musculus, MPC-11, MPC11; GDF8-stimulated; p-SMAD3 AlphaScreen; read-out: GDF pSMAD (MPC11) (inhibition of GDF8 signaling). For orientation: Bead proximity is the source of the signal in Alpha formats.

For the molecule `Cn1cnc2ccc(-c3cccnc3-c3cccc(O)c3)cc2c1=O` [compound 379, 6-(2-(3-Hydroxyphenyl)pyridin-3-yl)-3-methylquinazolin-4(3H)-one], the IC50 was 0.395 µM.

`CC(=O)Nc1cccc(-c2ncccc2-c2ccc3ncn(C)c(=O)c3c2)c1` [compound 380, N-(3-(3-(3-Methyl-4-oxo-3,4-dihydroquinazolin-6-yl)pyridin-2-yl)phenyl)acetamide]: the IC50 stood at 18.5 µM. To `Cn1cnc2ccc(-c3cccnc3-c3ccc(F)cc3)cc2c1=O` [compound 381, 6-(2-(4-Fluorophenyl)pyridin-3-yl)-3-methylquinazolin-4(3H)-one] belongs 2.61 µM. `Cn1cnc2ccc(-c3cccnc3-c3cccc4cccnc34)cc2c1=O` [compound 382, 3-Methyl-6-(2-(quinolin-8-yl)pyridin-3-yl)quinazolin-4(3H)-one]: the IC50 was found to be 14.8 µM. To `Cc1cc(-c2ncccc2-c2ccc3nc(N)ncc3c2)ccc1F` [compound 383, 6-(2-(4-Fluoro-3-methylphenyl)pyridin-3-yl)quinazolin-2-amine] belongs 16.7 µM; to `Cc1cccc(-c2ncccc2-c2ccc3nc(N)ncc3c2)c1` [compound 384, 6-(2-(m-Tolyl)pyridin-3-yl)quinazolin-2-amine], 7.79 µM.

`Cc1cccc(-c2ncccc2-c2ccc3ncnc(N4CCOCC4)c3c2)c1` [compound 386, 4-(6-(2-(m-Tolyl)pyridin-3-yl)quinazolin-4-yl)morpholine]: the IC50 worked out at 2 µM. `c1cc(-c2ncccc2-c2ccc3ncnc(N4CCOCC4)c3c2)cc(C2CC2)c1` [compound 387, 4-(6-(2-(3-Cyclopropylphenyl)pyridin-3-yl)quinazolin-4-yl)morpholine]: the IC50 is 1.28 µM. To `O=c1nc[nH]c2ccc(-c3cccnc3-c3ccc(F)c(Cl)c3)cc12` [compound 388, 6-(2-(3-Chloro-4-fluorophenyl)pyridin-3-yl)quinazolin-4(1H)-one] belongs 0.547 µM; to `O=c1nc[nH]c2ccc(-c3cccnc3-c3cccc(Cl)c3)cc12` [compound 389, 6-(2-(3-Chlorophenyl)pyridin-3-yl)quinazolin-4(1H)-one], 0.187 µM; to `Cn1cnc2ccc(-c3cccnc3-c3ccc(F)c(Cl)c3)cc2c1=O` [compound 390, 6-(2-(3-Chloro-4-fluorophenyl)pyridin-3-yl)-3-methylquinazolin-4(3H)-one], 0.516 µM. With `Cn1cnc2ccc(-c3cccnc3-c3cccc(Cl)c3)cc2c1=O` [compound 391, 6-(2-(3-Chlorophenyl)pyridin-3-yl)-3-methylquinazolin-4(3H)-one], the IC50 turned out to be 0.228 µM. As for `Cc1cc(-c2ncccc2-c2ccc3ncnc(N)c3c2)ccc1F` [compound 392, 6-(2-(4-Fluoro-3-methylphenyl)pyridin-3-yl)quinazolin-4-amine], the IC50 came to 0.127 µM. For the molecule `Nc1ncnc2ccc(-c3cccnc3-c3cccc(Cl)c3)cc12` [compound 393, 6-(2-(3-Chlorophenyl)pyridin-3-yl)quinazolin-4-amine], the IC50 stood at 0.07 µM.

As for `Nc1ncnc2ccc(-c3cccnc3-c3ccc(F)c(Cl)c3)cc12` [compound 394, 6-(2-(3-Chloro-4-fluorophenyl)pyridin-3-yl)quinazolin-4-amine], the IC50 stood at 0.119 µM. To `COc1ncnc2ccc(-c3cccnc3-c3ccc(F)c(Cl)c3)cc12` [compound 395, 6-(2-(3-Chloro-4-fluorophenyl)pyridin-3-yl)-4-methoxyquinazoline] belongs 0.959 µM. The figure for `Cc1cc(-c2ncccc2-c2ccc3cnc(N)nc3c2)ccc1F` [compound 396, 7-(2-(4-Fluoro-3-methylphenyl)pyridin-3-yl)quinazolin-2-amine] is 0.208 µM; for `CCN(CC)c1ncnc2ccc(-c3cccnc3-c3ccc(F)c(C)c3)cc12` [compound 397, N,N-Diethyl-6-(2-(4-fluoro-3-methylphenyl)pyridin-3-yl)quinazolin-4-amine] it is 9.41 µM; for `CCN(CC)c1ncnc2ccc(-c3cccnc3-c3cccc(O)c3)cc12` [compound 399, 3-(3-(4-(Diethylamino)quinazolin-6-yl)pyridin-2-yl)phenol] it is 4.65 µM. The figure for `Cc1cc(-c2ncccc2-c2ccc3ncnc(NC(C)C)c3c2)ccc1F` [compound 400, 6-(2-(4-Fluoro-3-methylphenyl)pyridin-3-yl)-N-isopropylquinazolin-4-amine] is 5.81 µM; for `CC(C)Nc1ncnc2ccc(-c3cccnc3-c3ccc(F)c(Cl)c3)cc12` [compound 401, 6-(2-(3-Chloro-4-fluorophenyl)pyridin-3-yl)-N-isopropylquinazolin-4-amine] it is 5.89 µM. Regarding `CCCCNc1ncnc2ccc(-c3cccnc3-c3ccc(F)c(C)c3)cc12` [compound 403, N-Butyl-6-(2-(4-fluoro-3-methylphenyl)pyridin-3-yl)quinazolin-4-amine], the IC50 amounted to 1.67 µM. As for `Cc1cc(-c2ncccc2-c2ccc3ncnc(NC4CC4)c3c2)ccc1F` [compound 404, N-Cyclopropyl-6-(2-(4-fluoro-3-methylphenyl)pyridin-3-yl)quinazolin-4-amine], the IC50 amounted to 1.03 µM. The figure for `Cc1cc(-c2ncccc2-c2ccc3ncnc(NC4CCCC4)c3c2)ccc1F` [compound 405, N-Cyclopentyl-6-(2-(4-fluoro-3-methylphenyl)pyridin-3-yl)quinazolin-4-amine] is 10.7 µM; for `Cc1cc(-c2ncccc2-c2ccc3ncnc(Nc4ccc(C(N)=O)cc4)c3c2)ccc1F` [compound 406, 4-((6-(2-(4-Fluoro-3-methylphenyl)pyridin-3-yl)quinazolin-4-yl)amino)benzamide] it is 2.79 µM; for `COc1ccc(Nc2ncnc3ccc(-c4cccnc4-c4ccc(F)c(C)c4)cc23)cc1` [compound 407, 6-(2-(4-Fluoro-3-methylphenyl)pyridin-3-yl)-N-(4-methoxyphenyl)quinazolin-4-amine] it is 2.47 µM. To `Cc1cc(-c2ncccc2-c2ccc3ncnc(Nc4ccc(N5CCOCC5)cc4)c3c2)ccc1F` [compound 408, 6-(2-(4-Fluoro-3-methylphenyl)pyridin-3-yl)-N-(4-morpholinophenyl)quinazolin-4-amine] belongs 0.673 µM; to `Cc1cc(-c2ncccc2-c2ccc3ncnc(Nc4ccc(C#N)cc4)c3c2)ccc1F` [compound 409, 4-((6-(2-(4-Fluoro-3-methylphenyl)pyridin-3-yl)quinazolin-4-yl)amino)benzonitrile], 7.95 µM.

With `Cc1cc(-c2ncccc2-c2ccc3ncnc(Nc4cccc(C(N)=O)c4)c3c2)ccc1F` [compound 410, 3-((6-(2-(4-Fluoro-3-methylphenyl)pyridin-3-yl)quinazolin-4-yl)amino)benzamide], the IC50 was found to be 4.13 µM. The figure for `Nc1ncnc2ccc(-c3cccnc3-c3cccc(C4CC4)c3)cc12` [compound 411, 6-(2-(3-Cyclopropylphenyl)pyridin-3-yl)quinazolin-4-amine] is 0.0725 µM; for `Cc1cc(-c2ncccc2-c2ccc3ncnc(NCCc4cccnc4)c3c2)ccc1F` [compound 414, 6-(2-(4-Fluoro-3-methylphenyl)pyridin-3-yl)-N-(2-(pyridin-3-yl)ethyl)quinazolin-4-amine] it is 3.33 µM; for `Cc1cc(-c2ncccc2-c2ccc3ncnc(NCc4ccncc4)c3c2)ccc1F` [compound 415, 6-(2-(4-Fluoro-3-methylphenyl)pyridin-3-yl)-N-(pyridin-4-ylmethyl)quinazolin-4-amine] it is 11.8 µM. The figure for `Cc1cc(-c2ncccc2-c2ccc3ncnc(NCc4cccnc4)c3c2)ccc1F` [compound 416, 6-(2-(4-Fluoro-3-methylphenyl)pyridin-3-yl)-N-(pyridin-3-ylmethyl)quinazolin-4-amine] is 4.86 µM; for `Cc1cc(-c2ncccc2-c2ccc3ncnc(NCC4CCN(C)CC4)c3c2)ccc1F` [compound 421, 6-(2-(4-Fluoro-3-methylphenyl)pyridin-3-yl)-N-((1-methylpiperidin-4-yl)methyl)quinazolin-4-amine] it is 1.4 µM. To `Cc1cc(-c2ncccc2-c2ccc3ncnc(NCCC4CCN(C)CC4)c3c2)ccc1F` [compound 422, 6-(2-(4-Fluoro-3-methylphenyl)pyridin-3-yl)-N-(2-(1-methylpiperidin-4-yl)ethyl)quinazolin-4-amine] belongs 1.28 µM; to `Cc1cc(-c2ncccc2-c2ccc3ncnc(NCCCN(C)C)c3c2)ccc1F` [compound 423, N1-(6-(2-(4-Fluoro-3-methylphenyl)pyridin-3-yl)quinazolin-4-yl)-N3,N3-dimethylpropane-1,3-diamine], 0.628 µM; to `Cc1cc(-c2ncccc2-c2ccc3ncnc(NCCCN4CCOCC4)c3c2)ccc1F` [compound 424, 6-(2-(4-Fluoro-3-methylphenyl)pyridin-3-yl)-N-(3-morpholinopropyl)quinazolin-4-amine], 2.43 µM. Consider `Cc1cc(-c2ncccc2-c2ccc3ncnc(OCCCN(C)C)c3c2)ccc1F` [compound 429, 3-((6-(2-(4-Fluoro-3-methylphenyl)pyridin-3-yl)quinazolin-4-yl)oxy)-N,N-dimethylpropan-1-amine], for which the IC50 came out at 0.384 µM.

`Cc1cc(-c2ncccc2-c2ccc3ncnc(OCC#N)c3c2)ccc1F` [compound 430, 2-((6-(2-(4-Fluoro-3-methylphenyl)pyridin-3-yl)quinazolin-4-yl)oxy)acetonitrile]: the IC50 was 0.475 µM. On to `Cc1cc(-c2ncccc2-c2ccc3ncnc(OCCCN4CCCC4=O)c3c2)ccc1F` [compound 431, 1-(3-((6-(2-(4-Fluoro-3-methylphenyl)pyridin-3-yl)quinazolin-4-yl)oxy)propyl)pyrrolidin-2-one], for which the IC50 amounted to 0.374 µM. To `Cc1ccc(Oc2ncnc3ccc(-c4cccnc4-c4ccc(F)c(C)c4)cc23)cn1` [compound 432, 6-(2-(4-Fluoro-3-methylphenyl)pyridin-3-yl)-4-((6-methylpyridin-3-yl)oxy)quinazoline] belongs 0.513 µM.

The values are drawn from patent publication US10858335B2 (Rigel Pharmaceuticals, Inc., priority 2014, dated 2020).
